# Values of other authors in patent publication US20110136741A1 (priority 2008, published 2011).
# Key:
# subtype sst2 receptors = subtype sst2 receptors (Homo sapiens, UniProt P30874)
# hsst2 = hsst2 (Homo sapiens, UniProt P30874)
# Sequence of hsst2 (P30874 whole entry): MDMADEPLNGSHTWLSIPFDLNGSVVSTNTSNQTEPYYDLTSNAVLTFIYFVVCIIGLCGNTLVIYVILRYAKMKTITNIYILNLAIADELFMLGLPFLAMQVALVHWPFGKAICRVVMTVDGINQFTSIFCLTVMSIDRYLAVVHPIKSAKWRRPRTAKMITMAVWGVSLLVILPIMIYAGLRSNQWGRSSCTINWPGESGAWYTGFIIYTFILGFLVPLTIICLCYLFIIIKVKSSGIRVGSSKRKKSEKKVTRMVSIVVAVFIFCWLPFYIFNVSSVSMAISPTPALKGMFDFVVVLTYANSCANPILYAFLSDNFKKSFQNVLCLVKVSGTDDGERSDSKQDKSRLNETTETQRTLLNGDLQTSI
# Sequence of subtype sst2 receptors (P30874 whole entry): as above
SMILES,affinity for subtype sst2 receptors (subtype sst2 receptors),activity towards hsst2 receptor (hsst2),half-life in blood
C[C@@H](O)[C@@H]1NC(=O)[C@H](CCCCN)NC(=O)[C@@H](Cc2c[nH]c3ccccc23)NC(=O)[C@H](Cc2ccccc2)NC(=O)[C@@H](NC(=O)[C@H](N)Cc2ccccc2)CSSC[C@@H](C(=O)N[C@H](CO)[C@@H](C)O)NC1=O [octreotide],very high affinity,very active,–
"CC(O)[C@@H]1NC(=O)[C@H](CCCCN)NC(=O)[C@H](Cc2c[nH]c3ccccc23)NC(=O)[C@H](Cc2ccccc2)NC(=O)[C@H](Cc2ccccc2)NC(=O)[C@H](CC(N)=O)NC(=O)[C@H](CCCCN)NC(=O)[C@@H](NC(=O)CNC(=O)[C@H](C)N)CSSC[C@@H](C(=O)O)NC(=O)[C@H](CO)NC(=O)[C@H]([C@@H](C)O)NC(=O)[C@H](Cc2ccccc2)NC1=O (stereo partly drawn) [somatostatin, Somatostatin-14]",–,–,< 3 min
